From patent US8906904B2, “Alkoxy pyrazoles as soluble guanylate cyclase activators” (Boehringer Ingelheim International GmbH, priority 2012, dated 2014) come the findings set out here.

Values after ≈ are worked out from the molar mass of the structure shown.

The data set is described as follows: Assessment of solubility (McIlvaine buffers, 24 h shake, UPLC-UV). The settings on record: kinetic from dmso stock. In kind it is physicochemical. Summed up:
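Compounds from 10 mM DMSO stocks were shaken for 24 h at room temperature in McIlvaine buffers at pH 2.2, 4.5 and 6.8 (2.5% v/v DMSO final), then filtered. Filtrates were quantified by UPLC-UV at 254 nm against a 50:50 acetonitrile/water reference assumed fully dissolved, as a single determination.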

For `CCOc1c(C(=O)O)cnn1-c1cccc(-c2cccc(Cl)c2OCc2ccc3c(c2)CCN(CCOC)C3)n1` [Compound 58], the solubility at 24 h came to 111 µg/mL (≈ 197 µM) (pH 2.2, aqueous buffer); 85 µg/mL (≈ 151 µM) (pH 4.5, aqueous buffer); 89 µg/mL (≈ 158 µM) (pH 6.8, aqueous buffer).
On the same counts, the results for `CCOc1c(C(=O)O)cnn1-c1cccc(-c2cccc(C)c2OCc2ccc3c(c2)CCN(C2CCOCC2)C3)n1` [Compound 77] are 96 µg/mL (≈ 169 µM), 83 µg/mL (≈ 146 µM) and 87 µg/mL (≈ 153 µM).
For `COc1c(C(=O)O)cnn1-c1cccc(-c2cccc(C)c2OCc2ccc3c(c2)CCN(C2CCOCC2C)C3)n1` (stereo not drawn) [Compound 86], the solubility at 24 h turned out to be 110 µg/mL (≈ 193 µM) (pH 2.2, aqueous buffer); 90 µg/mL (≈ 158 µM) (pH 4.5, aqueous buffer); 91 µg/mL (≈ 160 µM) (pH 6.8, aqueous buffer).
Turning to `COc1c(C(=O)O)cnn1-c1cccc(-c2cccc(C)c2OCc2ccc3c(c2)CCN(CC2COCCO2)C3)n1` (stereo not drawn) [Compound 92], the solubility at 24 h is, setting by setting: (pH 2.2, aqueous buffer) 110 µg/mL (≈ 193 µM); (pH 4.5, aqueous buffer) 93 µg/mL (≈ 163 µM); (pH 6.8, aqueous buffer) 96 µg/mL (≈ 168 µM).
Take `CCOc1c(C(=O)O)cnn1-c1cccc(-c2cccc(Cl)c2OCc2ccc3c(c2)CCN(C2COC2)C3)n1` [Compound 51]: the solubility at 24 h came out at 110 µg/mL (≈ 196 µM) (pH 2.2, aqueous buffer); 83 µg/mL (≈ 148 µM) (pH 4.5, aqueous buffer); 93 µg/mL (≈ 166 µM) (pH 6.8, aqueous buffer).
Compound `CCOc1c(C(=O)O)cnn1-c1cccc(-c2cccc(C)c2OCc2ccc3c(c2)CCN(CC2(C)COC2)C3)n1` [Compound 34] had a solubility at 24 h (pH 2.2, aqueous buffer) of 82 µg/mL (≈ 144 µM); a solubility at 24 h (pH 4.5, aqueous buffer) of 65 µg/mL (≈ 114 µM); a solubility at 24 h (pH 6.8, aqueous buffer) of 68 µg/mL (≈ 120 µM).
On the same counts, the results for `CCOc1c(C(=O)O)cnn1-c1cccc(-c2cccc(Cl)c2OCc2ccc3c(c2)CCN(C2CCC(F)(F)CC2)C3)n1` [Compound 57] are 95 µg/mL (≈ 152 µM), 47 µg/mL (≈ 75.4 µM) and 51 µg/mL (≈ 81.8 µM).
On the same counts, the results for `CCOc1c(C(=O)O)cnn1-c1cccc(-c2cccc(C)c2OCc2ccc3c(c2)CCN(CC2CCOCC2)C3)n1` [Compound 69] are 91 µg/mL (≈ 156 µM), 77 µg/mL (≈ 132 µM) and 80 µg/mL (≈ 137 µM).
With `Cc1cccc(-c2cccc(-n3ncc(C(=O)O)c3OC(C)C)n2)c1OCc1ccc2c(c1)CCN(C1CCOC1)C2` (stereo not drawn) [Compound 41], the solubility at 24 h (pH 2.2, aqueous buffer) was determined as 96 µg/mL (≈ 169 µM); the solubility at 24 h (pH 4.5, aqueous buffer) was found to be 75 µg/mL (≈ 132 µM); the solubility at 24 h (pH 6.8, aqueous buffer) stood at 80 µg/mL (≈ 141 µM).
On the same counts, the results for `COc1c(C(=O)O)cnn1-c1cccc(-c2cccc(C)c2OCc2ccc3c(c2)CCN(CC(C)(C)O)C3)n1` [Compound 33, 1-(6-{2-[2-(2-hydroxy-2-methyl-propyl)-1,2,3,4-tetrahydro-isoquinolin-6-ylmethoxy]-3-methyl-phenyl}-pyridin-2-yl)-5-methoxy-1H-pyrazole-4-carboxylic acid] are 93 µg/mL (≈ 171 µM), 73 µg/mL (≈ 135 µM) and 75 µg/mL (≈ 138 µM).
On the same counts, the results for `CCOc1c(C(=O)O)cnn1-c1cccc(-c2cccc(C)c2OCc2ccc3c(c2)CCN(C2CCOC(C)(C)C2)C3)n1` (stereo not drawn) [Compound 66] are 63 µg/mL (≈ 106 µM), 54 µg/mL (≈ 90.5 µM) and 55 µg/mL (≈ 92.2 µM).
On the same counts, the results for `COc1c(C(=O)O)cnn1-c1cccc(-c2cccc(C)c2OCc2ccc3c(c2)CN(CC2CC(F)(F)C2)C3)n1` [Compound 82] are 120 µg/mL (≈ 214 µM), 100 µg/mL (≈ 178 µM) and 97 µg/mL (≈ 173 µM).
For the compound `Cc1cccc(-c2cccc(-n3ncc(C(=O)O)c3OC(C)C)n2)c1OCc1ccc2c(c1)CCN(CC1(C)COC1)C2` [Compound 40], the concentration in solution (pH 2.2, aqueous buffer) (solubility at 24 h) was 99 µg/mL (≈ 170 µM); the concentration in solution (pH 4.5, aqueous buffer) (solubility at 24 h) came to 81 µg/mL (≈ 139 µM); the concentration in solution (pH 6.8, aqueous buffer) (solubility at 24 h) came to 85 µg/mL (≈ 146 µM).
On the same counts, the results for `COc1c(C(=O)O)cnn1-c1cccc(-c2cccc(C)c2OCc2ccc3c(c2C)CCN(C2CCOC2)C3)n1` (stereo not drawn) [Compound 31] are 110 µg/mL (≈ 198 µM), 89 µg/mL (≈ 160 µM) and 94 µg/mL (≈ 169 µM).
On the same counts, the results for `CCOc1c(C(=O)O)cnn1-c1cccc(-c2cccc(C)c2OCc2ccc3c(c2)CCN(C2CC(C)OC(C)C2)C3)n1` (stereo not drawn) [Compound 65] are 110 µg/mL (≈ 184 µM), 84 µg/mL (≈ 141 µM) and 74 µg/mL (≈ 124 µM).
On the same counts, the results for `CCOc1c(C(=O)O)cnn1-c1cccc(-c2cccc(C)c2OCc2ccc3c(c2)CCN(C2CCOCC2F)C3)n1` (stereo not drawn) [Compound 94] are 91 µg/mL (≈ 155 µM), 68 µg/mL (≈ 116 µM) and 73 µg/mL (≈ 124 µM).
Take `CCOc1c(C(=O)O)cnn1-c1cccc(-c2cccc(Cl)c2OCc2ccc3c(c2)CCN(C2CCOC2)C3)n1` (stereo not drawn) [Compound 55]: the solubility at 24 h is, setting by setting: (pH 2.2, aqueous buffer) 98 µg/mL (≈ 170 µM); (pH 4.5, aqueous buffer) 48 µg/mL (≈ 83.5 µM); (pH 6.8, aqueous buffer) 49 µg/mL (≈ 85.2 µM).
On the same counts, the results for `CCOc1c(C(=O)O)cnn1-c1cccc(-c2cccc(Cl)c2OCc2ccc3c(c2)CCNC3)n1` [Compound 50] are 120 µg/mL (≈ 238 µM), 79 µg/mL (≈ 156 µM) and 75 µg/mL (≈ 149 µM).
Turning to `COc1c(C(=O)O)cnn1-c1cccc(-c2cccc(C)c2OCc2ccc3c(c2)CCN(C2CCOCC2OC)C3)n1` (stereo not drawn) [Compound 81], the solubility at 24 h by setting is: (pH 2.2, aqueous buffer) 100 µg/mL (≈ 171 µM); (pH 4.5, aqueous buffer) 84 µg/mL (≈ 144 µM); (pH 6.8, aqueous buffer) 79 µg/mL (≈ 135 µM).
Turning to `COc1c(C(=O)O)cnn1-c1cccc(-c2cc(F)cc(F)c2OCc2ccc3c(c2)CCN(C2COC2)C3)n1` [Compound 52], the solubility at 24 h was found to be 83 µg/mL (≈ 151 µM) (pH 2.2, aqueous buffer); 58 µg/mL (≈ 106 µM) (pH 4.5, aqueous buffer); 73 µg/mL (≈ 133 µM) (pH 6.8, aqueous buffer).
On the same counts, the results for `COc1c(C(=O)O)cnn1-c1cccc(-c2cccc(C)c2OCc2ccc3c(c2)CCN(C2CC(C)OC(C)C2)C3)n1` (stereo not drawn) [Compound 62] are 110 µg/mL (≈ 189 µM), 88 µg/mL (≈ 151 µM) and 91 µg/mL (≈ 156 µM).
For `Cc1cccc(-c2cccc(-n3ncc(C(=O)O)c3OC(C)C)n2)c1OCc1ccc2c(c1C)CCN(C(C)C)C2` [Compound 43], the solubility at 24 h (pH 2.2, aqueous buffer) is 95 µg/mL (≈ 171 µM); the solubility at 24 h (pH 4.5, aqueous buffer) was determined as 79 µg/mL (≈ 142 µM); the solubility at 24 h (pH 6.8, aqueous buffer) is 82 µg/mL (≈ 148 µM).
On the same counts, the results for `COc1c(C(=O)O)cnn1-c1cccc(-c2cccc(C)c2OCc2ccc3c(c2)CCN([C@H]2CC[C@H](OC)CC2)C3)n1` [Compound 90] are 100 µg/mL (≈ 172 µM), 81 µg/mL (≈ 139 µM) and 81 µg/mL (≈ 139 µM).
For `COc1c(C(=O)O)cnn1-c1cccc(-c2cccc(C)c2OCc2ccc3c(c2)CCN(C2CC4CCC(C2)O4)C3)n1` (stereo not drawn) [Compound 87], the solubility at 24 h came out at 110 µg/mL (≈ 189 µM) (pH 2.2, aqueous buffer); 87 µg/mL (≈ 150 µM) (pH 4.5, aqueous buffer); 90 µg/mL (≈ 155 µM) (pH 6.8, aqueous buffer).
On the same counts, the results for `Cc1cccc(-c2cccc(-n3ncc(C(=O)O)c3OC(C)C)n2)c1OCc1ccc2c(c1)CCN(C1CCOCC1)C2` [Compound 1, 5-isopropoxy-1-(6-{3-methyl-2-[2-(tetrahydro-pyran-4-yl)-1,2,3,4-tetrahydro-isoquinolin-6-ylmethoxy]-phenyl}-pyridin-2-yl)-1H-pyrazole-4-carboxylic acid] are 95 µg/mL (≈ 163 µM), 80 µg/mL (≈ 137 µM) and 87 µg/mL (≈ 149 µM).
On to `CCOc1c(C(=O)O)cnn1-c1cccc(-c2cccc(C)c2OCc2ccc3c(c2)CCN(C2CCOCC2C)C3)n1` (stereo not drawn) [Compound 64], for which the solubility at 24 h is, setting by setting: (pH 2.2, aqueous buffer) 100 µg/mL (≈ 172 µM); (pH 4.5, aqueous buffer) 66 µg/mL (≈ 113 µM); (pH 6.8, aqueous buffer) 66 µg/mL (≈ 113 µM).
For `COCC(C)N1CCc2cc(COc3c(C)cccc3-c3cccc(-n4ncc(C(=O)O)c4OC(C)C)n3)ccc2C1` (stereo not drawn) [Compound 38], the solubility at 24 h worked out at 110 µg/mL (≈ 193 µM) (pH 2.2, aqueous buffer); 94 µg/mL (≈ 165 µM) (pH 4.5, aqueous buffer); 88 µg/mL (≈ 154 µM) (pH 6.8, aqueous buffer).
Compound `CCOc1c(C(=O)O)cnn1-c1cccc(-c2cccc(C)c2OCc2ccc3c(c2)CCN(C2CCOC2C)C3)n1` (stereo not drawn) [Compound 71] yielded a solubility at 24 h (pH 2.2, aqueous buffer) of 94 µg/mL (≈ 165 µM); a solubility at 24 h (pH 4.5, aqueous buffer) of 75 µg/mL (≈ 132 µM); a solubility at 24 h (pH 6.8, aqueous buffer) of 78 µg/mL (≈ 137 µM).
On the same counts, the results for `CCOc1c(C(=O)O)cnn1-c1cccc(-c2cccc(C)c2OCc2ccc3c(c2)CCN(C2CCOC(CC)C2)C3)n1` (stereo not drawn) [Compound 79] are 100 µg/mL (≈ 168 µM), 87 µg/mL (≈ 146 µM) and 89 µg/mL (≈ 149 µM).
With `COc1c(C(=O)O)cnn1-c1cccc(-c2cccc(C)c2OCc2ccc3c(c2C)CCN(CC(C)(C)C)C3)n1` [Compound 30], the solubility at 24 h runs as follows: (pH 2.2, aqueous buffer) 100 µg/mL (≈ 180 µM); (pH 4.5, aqueous buffer) 81 µg/mL (≈ 146 µM); (pH 6.8, aqueous buffer) 75 µg/mL (≈ 135 µM).
On the same counts, the results for `COc1c(C(=O)O)cnn1-c1cccc(-c2cccc(C)c2OCc2ccc3c(c2)CCN(C2CC(C)(C)OC(C)(C)C2)C3)n1` [Compound 73] are 86 µg/mL (≈ 141 µM), 67 µg/mL (≈ 110 µM) and 71 µg/mL (≈ 116 µM).
On the same counts, the results for `COc1c(C(=O)O)cnn1-c1cccc(-c2cccc(C)c2OCc2ccc3c(c2)C(C)(C)CN(C2CCOCC2)C3)n1` [Compound 89] are 130 µg/mL (≈ 223 µM), 92 µg/mL (≈ 158 µM) and 81 µg/mL (≈ 139 µM).
